# In patent publication US10065990B2, “Cyclic peptide compound, and preparation method, pharmaceutical composition and use thereof” (HANGZHOU GUANYU BIO-MEDICAL CO., LTD, priority 2013, dated 2018):
# Like-named read-outs stand apart in the source and are kept apart here.
# Assays:
# [1] = tested on: Bel-7402 (human hepatoma cells); test: MTT cancer cell growth inhibition; assay type: cell-based; conditions: Homo sapiens, Bel-7402, 72 h, MTT, 72 hours incubation, Bel-7402 cells; read-out: GI50 Bel-7402
# From the text: (§1) MTT assay principle is yellow MTT can penetrate membrane into the cell, succinic dehydrogenase of the mitochondria in living cells can make exogenous MTT reduction of insoluble in water of blue-violet acicular formazan for crystallization and deposition in the cell, crystallization can be dissolved dimethyl sulfoxide (DMSO) solution, detected its absorbance at 490 nm/570 nm wavelength by enzyme-linked immunosorbent assay, which can reflect the number of cells.
# (§2) Using DMEM+10% FBS culture medium or using 1640+10% FBS culture, respectively.
# (§3) a) Cells were seeded in 96-well plates with the inoculation of 1500/well, 190 μl/hole, 37° C., 5% of CO2 incubator overnight;
# (§4) b) The next day each well was added 10 μl of different drugs. The final concentration of drug was 10^−5˜10^−10M, three parallel holes; 37° C., 5% CO2 culture incubator for 72 hours incubation;
# (§5) c) Per well was added 20 μl 5 mg/ml of MTT, 37° C., 5% CO2 culture incubator for 4 hours incubation;
# (§6) d) The supernatant was discarded. Each well was added 100 μl of DMSO and oscillation;
# (§7) e) 570 nm readings. Calculate cell viability. GI50 calculation based on the results.
# [2] = tested on: HCC827 (human non-small cell lung cancer cells); test: MTT cancer cell growth inhibition; assay type: cell-based; conditions: Homo sapiens, HCC827, 72 h, MTT, 72 hours incubation, HCC827 cells; read-out: GI50 HCC827
# From the text: as §1, §2, §3, §4, §5, §6, §7
# [3] = tested on: HT1080 (human fibrosarcoma cells); test: MTT cancer cell growth inhibition; assay type: cell-based; conditions: Homo sapiens, HT-1080, 72 h, MTT, 72 hours incubation, read-out: GI50 HT1
# From the text: as §1, §2, §3, §4, §5, §6, §7
# [4] = tested on: H1975 (non-small cell lung adenocarcinoma); test: MTT cancer cell growth inhibition; assay type: cell-based; conditions: Homo sapiens, NCI-H1975, 72 h, MTT, 72 hours incubation, H1975 cells; read-out: GI50 H1975
# From the text: as §1, §2, §3, §4, §5, §6, §7
# [5] = tested on: Huh-7 (human hepatoma cells); test: MTT cancer cell growth inhibition; assay type: cell-based; conditions: Homo sapiens, Huh-7, 72 h, MTT, 72 hours incubation, Huh-7 cells; read-out: GI50 Huh-7
# From the text: as §1, §2, §3, §4, §5, §6, §7
# [6] = tested on: SGC-7901 (human gastric cancer cells); test: MTT cancer cell growth inhibition; assay type: cell-based; conditions: Homo sapiens, SGC-7901, 72 h, MTT, 72 hours incubation, SGC-7901 cells; read-out: GI50 SGC-7901
# From the text: as §1, §2, §3, §4, §5, §6, §7
# [7] = tested on: BGC-823 (human gastric cancer cells); test: MTT cancer cell growth inhibition; assay type: cell-based; conditions: Homo sapiens, BGC-823, 72 h, MTT, 72 hours incubation, read-out: GI50 BG
# From the text: as §1, §2, §3, §4, §5, §6, §7
# [8] = tested on: DU145 (human prostate cancer cells); test: MTT cancer cell growth inhibition; assay type: cell-based; conditions: Homo sapiens, DU-145, 72 h, MTT, 72 hours incubation, read-out: GI50 Du1
# From the text: as §1, §2, §3, §4, §5, §6, §7
# [9] = tested on: KBM5-T315I (human chronic myelogenous leukemia); test: MTT cancer cell growth inhibition; assay type: cell-based; conditions: Homo sapiens, 72 h, MTT, 72 hours incubation, KBM5-T315I cells; read-out: GI50 KBM5-T315I
# From the text: as §1, §2, §3, §4, §5, §6, §7
# [10] = tested on: PANC-1 (Pac-1, human pancreatic cancer cells); test: MTT cancer cell growth inhibition; assay type: cell-based; conditions: Homo sapiens, PANC-1, 72 h, MTT, 72 hours incubation, read-out: GI50 PAN
# From the text: as §1, §2, §3, §4, §5, §6, §7
# [11] = tested on: K562 (human leukemia cells); test: MTT cancer cell growth inhibition; assay type: cell-based; conditions: Homo sapiens, K562, 72 h, MTT, 72 hours incubation, K562 cells; read-out: GI50 K562
# From the text: as §1, §2, §3, §4, §5, §6, §7
# [12] = tested on: MCF-7 (human breast cancer cells); test: MTT cancer cell growth inhibition; assay type: cell-based; conditions: Homo sapiens, MCF7, 72 h, 72 hours incubation, read-out: GI50 MCF
# From the text: as §1, §2, §3, §4, §5, §6, §7
# [13] = tested on: Hela (human cervical cancer cells); test: MTT cancer cell growth inhibition; assay type: cell-based; conditions: Homo sapiens, HeLa, 72 h, MTT, 72 hours incubation, read-out: GI50 Hela
# From the text: as §1, §2, §3, §4, §5, §6, §7
# [14] = tested on: KBM-5 (human chronic myelogenous leukemia); test: MTT cancer cell growth inhibition; assay type: cell-based; conditions: Homo sapiens, KBM5, 72 h, MTT, 72 hours incubation, KBM-5 cells; read-out: GI50 KBM-5
# From the text: as §1, §2, §3, §4, §5, §6, §7
# [15] = tested on: A549 (human lung cancer cells); test: MTT cancer cell growth inhibition; assay type: cell-based; conditions: Homo sapiens, A549, 72 h, MTT, 72 hours incubation, read-out: GI50 A54
# From the text: as §1, §2, §3, §4, §5, §6, §7
# [16] = tested on: N-87 (human gastric cancer cells); test: MTT cancer cell growth inhibition; assay type: cell-based; conditions: Homo sapiens, 72 h, MTT, 72 hours incubation, N-87 cells; read-out: GI50 N-87
# From the text: as §1, §2, §3, §4, §5, §6, §7
# [17] = tested on: MDA-MB-231 (breast cancer cells); test: MTT cancer cell growth inhibition; assay type: cell-based; conditions: Homo sapiens, MDA-MB-231, 72 h, read-out: GI50 MDA-MB-231, MTT, 72 hours incubation, MDA-MB-231 cells
# From the text: as §1, §2, §3, §4, §5, §6, §7
# [18] = tested on: MOLT-4 (human acute lymphoblastic leukemia cells); test: MTT cancer cell growth inhibition; assay type: cell-based; conditions: Homo sapiens, MOLT-4, 72 h, MTT, 72 hours incubation, read-out: GI50 Mol
# From the text: as §1, §2, §3, §4, §5, §6, §7
# [19] = tested on: lncap (prostate cancer cells); test: MTT cancer cell growth inhibition; assay type: cell-based; conditions: Homo sapiens, LNCaP, 72 h, MTT, 72 hours incubation, read-out: GI50 lnca
# From the text: as §1, §2, §3, §4, §5, §6, §7
# [20] = tested on: U937 (human leukemia cells); test: MTT cancer cell growth inhibition; assay type: cell-based; conditions: Homo sapiens, U-937, 72 h, MTT, 72 hours incubation, read-out: GI50 U93
# From the text: as §1, §2, §3, §4, §5, §6, §7
# HDAC7 = biological target: T1, HDAC7 (Homo sapiens, UniProt Q8WUI4); test: HDAC biochemical activity measurement (fluorescent substrate deacetylation);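 further: fluorogenic deacetylation assay using acetyl-lysine substrate at 20 µM, enzyme and compound incubated 30 min at 37 °C, then developer added, fluorescence read at 360/460 nm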; conditions: HDAC7; 37° C. 30 minutes
# T1 sequence (Q8WUI4 1-952): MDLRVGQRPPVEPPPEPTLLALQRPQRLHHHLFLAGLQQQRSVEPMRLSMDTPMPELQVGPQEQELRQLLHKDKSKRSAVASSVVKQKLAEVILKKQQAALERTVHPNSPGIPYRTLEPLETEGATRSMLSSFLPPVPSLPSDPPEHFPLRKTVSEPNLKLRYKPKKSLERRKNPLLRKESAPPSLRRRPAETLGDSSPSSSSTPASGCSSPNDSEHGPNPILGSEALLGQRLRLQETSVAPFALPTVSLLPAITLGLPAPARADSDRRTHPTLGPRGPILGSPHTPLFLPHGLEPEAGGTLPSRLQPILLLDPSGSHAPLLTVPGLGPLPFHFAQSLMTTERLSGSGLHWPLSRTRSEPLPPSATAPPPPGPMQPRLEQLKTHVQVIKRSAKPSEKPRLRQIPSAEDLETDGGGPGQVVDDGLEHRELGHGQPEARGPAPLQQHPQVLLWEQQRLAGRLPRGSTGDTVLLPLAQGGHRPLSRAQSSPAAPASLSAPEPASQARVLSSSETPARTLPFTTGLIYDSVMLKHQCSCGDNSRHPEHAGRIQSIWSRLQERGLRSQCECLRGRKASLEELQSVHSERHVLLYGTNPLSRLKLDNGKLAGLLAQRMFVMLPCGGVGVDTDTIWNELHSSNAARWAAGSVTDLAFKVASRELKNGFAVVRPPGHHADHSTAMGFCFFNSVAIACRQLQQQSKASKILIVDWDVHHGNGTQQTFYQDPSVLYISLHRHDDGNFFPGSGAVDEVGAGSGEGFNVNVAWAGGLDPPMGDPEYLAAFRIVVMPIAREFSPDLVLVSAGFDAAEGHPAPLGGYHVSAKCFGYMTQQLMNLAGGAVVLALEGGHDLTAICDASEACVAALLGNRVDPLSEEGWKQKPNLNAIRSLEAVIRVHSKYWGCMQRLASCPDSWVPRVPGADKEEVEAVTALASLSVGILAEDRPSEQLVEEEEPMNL
GI50 [1] [nM],GI50 [2] [nM],GI50 [3] [nM],GI50 [4] [nM],GI50 [5] [nM],GI50 [6] [nM],GI50 [7] [nM],GI50 [8] [nM],GI50 [9] [nM],GI50 [10] [nM],GI50 [11] [nM],GI50 [12] [nM],GI50 [13] [nM],GI50 [14] [nM],GI50 [15] [nM],GI50 [16] [nM],GI50 [17] [nM],GI50 [18] [nM],GI50 [19] [nM],IC50 HDAC7 (HDAC7),SMILES,other results
23,73,90,16,35,41,80,60,31,80,55,60,70,21,60,73,58,90,70,no activity,C/C=C1\NC(=O)c2nc(ccc2F)CNC(=O)C[C@@H](/C=C/CCS)OC(=O)[C@H](C)NC1=O [Compound 112],GI50 [20]: 60 nM
14,63,,83,39,47,,,35,,83,,,43,,98,52,,,no activity,C/C=C1\NC(=O)c2ccc(SC)c(n2)CNC(=O)C[C@@H](/C=C/CCSC(C)=O)OC(=O)[C@@H](C)NC1=O [Compound 222],GI50 ([3]; HT1080 cells): 70 nM; GI50 ([7]; BGC-823 cells): 40 nM; GI50 ([8]; DU145 cells): 30 nM; GI50 ([10]; PANC-1 cells): 30 nM; GI50 ([12]; MCF-7 cells): 70 nM; GI50 ([13]; Hela cells): 20 nM; GI50 ([15]; A549 cells): 50 nM; GI50 ([18]; MOLT-4 cells): 30 nM; GI50 ([19]; lncap cells): 60 nM; GI50 ([20]; U937 cells): 80 nM
51,51,50,38,46,61,60,20,59,50,26,50,70,75,60,63,46,40,40,no activity,C/C=C1\NC(=O)c2ccc(F)c(n2)CNC(=O)C[C@@H](/C=C/CCSC(=O)CCCCCC)OC(=O)[C@H](C(C)C)NC1=O [Example 35],GI50 [20]: 30 nM
